Source: ChEMBL document CHEMBL4613322, “HOPPI-NMR: Hot-Peptide-Based Screening Assay for Inhibitors of Protein-Protein Interactions by NMR” (ACS Med Chem Lett, 2020)
Calls of active or inactive are those of the source. The rule behind the calls is not given here. Peptide text beside a SMILES is read from it.

Legend:
[1] = target: T1, E3 ubiquitin-protein ligase Mdm2 (Homo sapiens, UniProt Q00987); experiment: Binding affinity to 6xHis-taged MDM2 (unknown origin) expressed in Escherichia coli Gold (DE3) assessed as increase in signal-to-noise ratio at 0.1 mM by STD-NMR analysis
Target sequence in this assay (Q00987 whole entry, looked up): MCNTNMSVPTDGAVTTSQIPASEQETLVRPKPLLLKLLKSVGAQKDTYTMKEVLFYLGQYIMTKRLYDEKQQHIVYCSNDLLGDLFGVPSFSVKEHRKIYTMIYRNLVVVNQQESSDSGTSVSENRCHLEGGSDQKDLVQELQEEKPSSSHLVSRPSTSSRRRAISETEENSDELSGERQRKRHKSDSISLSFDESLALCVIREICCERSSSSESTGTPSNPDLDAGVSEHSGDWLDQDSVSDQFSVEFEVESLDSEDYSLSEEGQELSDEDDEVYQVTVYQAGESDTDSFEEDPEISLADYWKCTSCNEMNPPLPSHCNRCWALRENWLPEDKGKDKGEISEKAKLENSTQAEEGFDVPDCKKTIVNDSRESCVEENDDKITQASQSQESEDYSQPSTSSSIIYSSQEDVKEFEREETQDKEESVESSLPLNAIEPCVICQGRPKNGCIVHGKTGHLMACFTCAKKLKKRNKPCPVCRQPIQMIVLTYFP

[2] = target: T1, E3 ubiquitin-protein ligase Mdm2; experiment: Binding affinity to 6xHis-taged MDM2 (unknown origin) expressed in Escherichia coli Gold (DE3) assessed as change in signal intensity at 0.1 mM by WATERLOGSY-NMR analysis
Target sequence in this assay (Q00987 whole entry, looked up): as above

[3] = target: T1, E3 ubiquitin-protein ligase Mdm2; experiment: Competitive binding affinity to 6xHis-taged MDM2 (unknown origin) expressed in Escherichia coli Gold (DE3) assessed as reduction in signal intensity at 0.1 mM in presence of 0.1 mM nutlin-3a by WATERLOGSY-NMR analysis
Target sequence in this assay (Q00987 whole entry, looked up): as above

[4] = target: T1, E3 ubiquitin-protein ligase Mdm2; experiment: Binding affinity to N-terminal 6xHis-tagged MDM2 (unknown origin) (1 to 126 residues) assessed as inhibition of MDM2/p53 protein-protein interaction by fluorescence anisotrophy assay
Target sequence in this assay (Q00987 whole entry): as the sequence (Q00987 whole entry, looked up) above

[5] = target: T1, E3 ubiquitin-protein ligase Mdm2; experiment: Competitive binding affinity to 6xHis-taged MDM2 (unknown origin) expressed in Escherichia coli Gold (DE3) assessed as reduction in STD signal intensity at 0.1 mM in presence of 0.1 mM nutlin-3a by STD-NMR analysis
Target sequence in this assay (Q00987 whole entry, looked up): as above

[6] = target: T1, E3 ubiquitin-protein ligase Mdm2; experiment: Binding affinity to 6xHis-taged MDM2 (unknown origin) expressed in Escherichia coli Gold (DE3) assessed as observation of positive signal at 0.1 mM by STD-NMR analysis
Target sequence in this assay (Q00987 whole entry, looked up): as above

[7] = target: Ras-related protein Rab-6A (Homo sapiens, UniProt P20340); experiment: Binding affinity to RAB6A (unknown origin) assessed as inhibition of RAB6A/[…] protein-protein interaction
Sequence of Ras-related protein Rab-6A (P20340 whole entry, the tested form may be a part): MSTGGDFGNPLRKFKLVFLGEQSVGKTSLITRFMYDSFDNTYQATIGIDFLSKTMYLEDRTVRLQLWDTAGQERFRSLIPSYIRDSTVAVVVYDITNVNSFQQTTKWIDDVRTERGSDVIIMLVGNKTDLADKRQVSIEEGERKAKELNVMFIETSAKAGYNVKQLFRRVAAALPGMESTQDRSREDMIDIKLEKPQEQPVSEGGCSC

[8] = Binding affinity to IPTG-induced […] human TEV cleavage site-fused- GST-tagged beta-catenin (134 to 665 residues) assessed as inhibition of beta-catenin/axin protein-protein interaction after 45 mins by fluorescence polarization assay
[9] = target: T1, E3 ubiquitin-protein ligase Mdm2; experiment: Binding affinity to 6xHis-taged MDM2 (unknown origin) expressed in Escherichia coli Gold (DE3) assessed as inversion of signal intensity from negative to positive at 0.1 mM by WATERLOGSY-NMR analysis
Target sequence in this assay (Q00987 whole entry, looked up): as the sequence (Q00987 whole entry, looked up) above

[10] = target: T1, E3 ubiquitin-protein ligase Mdm2; experiment: Competitive binding affinity to 6xHis-taged MDM2 (unknown origin) expressed in Escherichia coli Gold (DE3) assessed as observation of residual signal at 0.1 mM in presence of 0.1 mM nutlin-3a by STD-NMR analysis
[11] = Binding affinity to Plasmodium falciparum N-terminal His6-tagged MTIP expressed in Escherichia coli BL21 (DE3) assessed as inhibition of MTIP/MyoA protein-protein interaction at 303 K by isothermal titration calorimetry
[12] = target: T2, Menin (Homo sapiens, UniProt O00255); experiment: Binding affinity to human Menin expressed in Escherichia coli BL21 (DE3) assessed as inhibition of Menin/MLL1 protein-protein at 20 degree C by isothermal titration calorimetry
T2 sequence (O00255 whole entry): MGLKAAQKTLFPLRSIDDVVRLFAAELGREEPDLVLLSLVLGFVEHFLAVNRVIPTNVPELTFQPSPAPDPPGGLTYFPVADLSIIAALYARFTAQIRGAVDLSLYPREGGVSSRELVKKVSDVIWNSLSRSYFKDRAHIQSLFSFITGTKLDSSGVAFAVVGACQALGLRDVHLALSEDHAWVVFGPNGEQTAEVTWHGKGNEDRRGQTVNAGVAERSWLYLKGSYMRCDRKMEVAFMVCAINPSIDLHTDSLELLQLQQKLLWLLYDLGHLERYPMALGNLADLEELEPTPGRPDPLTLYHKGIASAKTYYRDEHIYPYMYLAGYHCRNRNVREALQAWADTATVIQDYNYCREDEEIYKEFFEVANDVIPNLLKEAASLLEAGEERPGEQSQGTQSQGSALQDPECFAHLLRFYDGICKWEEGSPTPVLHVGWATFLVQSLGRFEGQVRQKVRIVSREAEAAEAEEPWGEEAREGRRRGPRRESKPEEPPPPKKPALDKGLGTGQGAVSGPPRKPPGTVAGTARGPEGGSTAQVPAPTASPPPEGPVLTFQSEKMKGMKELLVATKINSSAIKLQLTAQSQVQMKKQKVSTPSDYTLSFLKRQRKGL

SMILES | Activity [1] | Activity [3] | Kd [4] | Activity [5] | Activity [6] | also measured
CC(C)C[C@H](NC(=O)[C@H](CC(C)C)NC(=O)[C@H](CCCCN)NC(=O)[C@H](Cc1c[nH]c2ccccc12)NC(=O)[C@H](CC(C)C)NC(=O)[C@H](CC(=O)O)NC(=O)[C@H](CO)NC(=O)[C@@H](N)Cc1ccccc1)C(=O)O | Active | Active | 0.8 µM | Active | Active | Activity [2]: Active
CC(C)C[C@H](NC(=O)[C@H](CC(C)C)NC(=O)[C@H](Cc1cnc[nH]1)NC(=O)[C@H](Cc1ccc(O)cc1)NC(=O)[C@H](CC(C)C)NC(=O)[C@H](Cc1ccccc1)NC(=O)[C@H](CCC(N)=O)NC(=O)[C@H](CCC(=O)O)NC(=O)[C@H](CCCCN)NC(=O)[C@H](CCC(=O)O)NC(=O)[C@H](CC(=O)O)NC(=O)[C@@H](N)CC(=O)O)C(=O)N[C@@H](CO)C(=O)N[C@@H](Cc1ccccc1)C(=O)N[C@@H](CC(N)=O)C(=O)N[C@@H](C)C(=O)N[C@H](C(=O)O)C(C)C (H-DDEKEQFLYHLLSFNAV-OH) |  |  |  |  |  | Kd [7]: 20 µM
CC[C@H](C)[C@H](NC(=O)[C@H](CO)NC(=O)[C@H](CCC(=O)O)NC(=O)[C@@H]1CCCN1C(=O)[C@H](CC(N)=O)NC(=O)[C@@H](N)CCC(=O)O)C(=O)N[C@@H](CC(C)C)C(=O)N[C@@H](CC(=O)O)C(=O)N[C@@H](CCC(=O)O)C(=O)N[C@@H](Cc1cnc[nH]1)C(=O)N[C@H](C(=O)N[C@@H](CCC(N)=O)C(=O)N[C@@H](CCCNC(=N)N)C(=O)N[C@H](C(=O)N[C@@H](CCSC)C(=O)O)C(C)C)C(C)C (H-ENPESILDEHVQRVM-OH) |  |  |  |  |  | Kd [8]: 5 µM
CC(C)C[C@H](NC(=O)[C@H](CCCCN)NC(=O)[C@H](Cc1c[nH]c2ccccc12)NC(=O)[C@H](CC(C)C)NC(=O)[C@H](CC(=O)O)NC(=O)[C@H](CO)NC(=O)[C@@H](N)Cc1ccccc1)C(=O)O (H-FSDLWKL-OH) | Active | Active | 150 µM | Active | Active | Activity [9]: Active; Activity [10]: Active
CC[C@H](C)[C@H](NC(=O)[C@H](Cc1cnc[nH]1)NC(=O)[C@H](C)NC(=O)[C@H](CCC(N)=O)NC(=O)[C@@H](NC(=O)[C@H](CCCNC(=N)N)NC(=O)[C@H](CC(C)C)NC(=O)[C@H](CC(C)C)NC(=O)[C@H](CO)NC(=O)[C@@H]1CCCN1C(=O)[C@@H](NC(=O)[C@@H](N)CC(N)=O)[C@@H](C)CC)C(C)C)C(=O)N[C@@H](CCCNC(=N)N)C(=O)N[C@@H](CCCCN)C(=O)N[C@@H](CCCCN)C(=O)N[C@@H](CCSC)C(=O)N[C@H](C(=O)N[C@@H](C)C(=O)N[C@@H](CCC(N)=O)C(=O)O)C(C)C (H-NIPSLLRVQAHIRKKMVAQ-OH) |  |  |  |  |  | Kd [11]: 0.085 µM
C[C@H](NC(=O)[C@@H]1CCCN1C(=O)[C@H](Cc1ccccc1)NC(=O)[C@H](CCCNC(=N)N)NC(=O)[C@H](Cc1c[nH]c2ccccc12)NC(=O)[C@@H](N)CCCNC(=N)N)C(=O)N[C@@H](CCCNC(=N)N)C(=O)N1CCC[C@H]1C(=O)NCC(=O)N[C@H](C(=O)N[C@H](C(=O)NCC(=O)NCC(=O)NCC(=O)NCC(=O)NCC(=O)NCC(=O)NCC(=O)N[C@@H](CCCNC(=N)N)C(=O)N[C@@H](CCCNC(=N)N)C(=O)O)[C@@H](C)O)[C@@H](C)O (H-RWRFPARPGTTGGGGGGGRR-OH) |  |  |  |  |  | Kd [12]: 0.082 µM
